The values that follow come from patent US9616037B2, “Aryl-phenyl-sulfonamido-cycloalkyl compounds and their use” (PIMCO 2664 Limited, priority 2008, dated 2017).

Assay [1] concerns J774 macrophages. Description: Alamar Blue macrophage J774 viability assay. It is filed as cell-based. Conditions: Mus musculus; J774 cells, 72 hours with compound, Alamar Blue readout; read-out: IC50. For orientation: Alamar Blue is a resazurin reagent that responds to reducing activity.
Assay [2] deals with caspase 3. As to the kind of experiment: Caspase induction study (Nucview488 fluorogenic substrate) in the presence of TNFα. It is filed as cell-based. Conditions: human monocytes, 10 μM test compound, 10 ng/mL TNFα, Nucview488 stain. Here is the method:
The ability to activate caspase 3 was studied using a fluorogenic enzyme substrate assay.
Briefly, human primary monocytes were isolated from whole blood using Ficoll gradients. The resulting cells were plated into microwell plates for 24 hours after which non-adherent cells were removed by washing. Cells were differentiated in the presence of 100 ng/mL MCSF. Cells were pre-treated with 10 μM test compound for 1 hour prior to stimulation with 10 ng/mL TNFα. Caspase 3 activation as an indicator of apoptosis was detected using the Nucview488 stain, which was added one hour prior to visualisation. The Nucview488 stain indicates the activation of caspase 3 (CPP32, apopain, YAMA), a cysteine peptidase which plays a key role in the induction of apoptosis in individual whole mammalian cells. Essentially, Nucview488 consists of a fluorogenic DNA dye and a DEVD substrate moiety specific for caspase 3. In itself, Nucview488 is nonfluorescent. However, upon entering the cell cytoplasm, Nucview488 is cleaved by caspase 3 to form a high-affinity DNA dye. The released DNA dye migrates to the cell nucleus to stain the nucleus bright green. This fluorescent staining produced in response to caspase 3 activity is monitored using fluorescent light microscopy.

A word on the IC50: it is the midpoint of a concentration-inhibition curve.

SMILES strings stand for the structures.

On to `O=S(=O)(N[C@H]1CC[C@@H](CO)C1)c1ccc(-c2ccc(F)cc2F)cc1` [ABD773, 2′,4′-Difluoro-N-((1 S,3R)-3-(hydroxymethyl)cyclopentyl)biphenyl-4-sulfonamide], for which the IC50 in assay [1] was determined as 130 nM.

Take `O=S(=O)(N[C@H]1CC[C@@H](CO)CC1)c1ccc(-c2ccc(F)cc2F)cc1` [ABD781, 2′,4′-Difluoro-N-(cis-4-(hydroxymethyl)cyclohexyl)biphenyl-4-sulfonamide]: in assay [1], the half-inhibitory concentration (IC50) worked out at 300 nM. Moreover, in assay [2], the “caspase 3 activation (fluorescence detected by light microscopy)” value is on record as “significant activation of caspase 3”.
